The values that follow come from patent US20150065440A1 (Progen Pharmaceuticals Limited, priority 2007, published 2015).

One data set addresses T1, VEGF (Homo sapiens, UniProt P15692).
T1 sequence (P15692 207-395): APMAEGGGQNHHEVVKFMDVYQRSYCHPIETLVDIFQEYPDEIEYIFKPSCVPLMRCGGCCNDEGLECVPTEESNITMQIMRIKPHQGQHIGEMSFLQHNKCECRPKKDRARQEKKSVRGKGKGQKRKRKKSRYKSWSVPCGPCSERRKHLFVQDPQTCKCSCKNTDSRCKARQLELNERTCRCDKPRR
Description: Growth factor binding assay (SPR solution affinity), VEGF. To be noted: HBS-EP buffer, 25° C. The gist of the method: (§1)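 Kd measured by SPR solution affinity: fixed growth factor with varying ligand competing for heparin-coated sensorchip, 25 °C. Buffer HBS-EP pH 7.4 (150 mM NaCl) for FGF-1 and VEGF; FGF-2 with 0.3 M NaCl. Duplicate values averaged.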

In another data set the target is FGF-2 (Homo sapiens, UniProt P09038). Description: Growth factor binding assay (SPR solution affinity), FGF-2. The settings on record: SPR, HBS-EP buffer containing 0.3 M NaCl, 25° C.; read-out: Kd FGF-2. The procedure, abridged:
as §1

The subject of data set [1] is pooled normal human plasma. The experiment in a line: Anticoagulant activity, APTT. To be noted: 0.1 mg/mL in normal pooled human plasma. The protocol: APTT measurements were performed on a STAGO STA-Compact Coagulation Analyser using standard protocols according to the manufacturer's instructions. Unfractionated heparin (UFH) was used as a control.
The format of data set [2] is in vivo, Sprague-Dawley rats. The protocol:
Adult male Sprague-Dawley (SD) rats (approx 300 g) were used for the experiment. Femoral artery cannulae was implanted and exteriorised following isoflurane anaesthesia. Jugular vein artery cannulae was implanted and exteriorized. […]. Blood samples (˜325 μL) were collected into sample tubes containing the anticoagulant sodium citrate from femoral artery catheter pre-dose and at 5, 20 minutes and 2, 5, 8, 12, 24, and 48 hours post-dose, and kept at reduced temperature (approx 4° C.) until centrifuged. Blood samples were centrifuged, plasma separated and 50 μL aliquot of the plasma transferred to a scintillation vial for counting. At the end of the experimental period animals were euthanased via a lethal overdose of pentobarbital. The level of radioactivity in the plasma was measured following mixing of samples with Packard Ultima Gold liquid scintillation counting cocktail. Counting was conducted on a Beckman liquid scintillation counter (LS6500) or Packard TriCarb liquid scintillation counter for 10 minutes per sample. Results (DPM, calculated from an in-built quench curve in the counter) were corrected for background prior to any calculations. The pharmacokinetic parameters were calculated using PK Solutions 2.0 software (Summit Research Services, Ohio, U.S.A.) and are summarised in Table 11 below.

In data set [3] the test system is normal pooled human plasma. The experiment in a line: Anticoagulant activity, Heptest. The settings on record: 0.1 mg/mL in normal pooled human plasma.
A further data set has as its system HUVECs. Description: Matrigel microtubule formation assay. The format is cell-based, human. The settings on record: Homo sapiens, HUVEC, read-out: Microtubule Formation % inhibition at 10 μM; 10 μM, relative to controls. Here is the method: Medium for the proliferation studies was prepared using EGM with 2% FBS and gentamicin only. In a later study, complete EGM was used for the VEGF groups in an attempt to enhance the proliferative index of VEGF-stimulated groups. For the tube formation assay, complete medium was used with only heparin omitted. Compounds under investigation were weighed out from powder stocks and diluted in PBS to 10 mM stock solutions and stored at −80° C. For experiments, compounds were subsequently diluted in EBM-2 medium (supplemented with 2% FBS and gentamicin) to various working concentration as required.
The tube formation assay was performed essentially as described by Malinda et al., with modifications.^41 HUVECs in the fourth or fifth passage at 70-80% confluence were harvested and resuspended in Lonza endothelial growth medium (EGM2) containing all supplements as directed by manufacturer, except heparin, at a cell density of 4×10^5 cells per mL. For each set of triplicate wells, 200 μL of cells (4×10^5/mL) were treated with an equal volume of compound to obtain final concentrations of 10, 50 or 100 μM (thus ensuring 1×300 μL are available for each condition). A 100 μL aliquot of cells was then plated onto 96-well plates pre-coated with growth factor reduced Matrigel™ (50 μL for 30 min followed by a further 30 μL for 1 h) and incubated for 18-22 h. Tube formation was examined by phase-contrast microscopy and images were collected using an Olympus C5050 digital camera. Tube formation inhibition was quantitated manually from images by recording the total number of nodes connecting 3 or more tubules. Untreated HUVECs were used as a control for normal cell growth and tube formation in Matrigel.

The next data set concerns rat aortic tissue. Description: Ex vivo angiogenic sprout assay (rat aortic angiogenesis assay). The format is cell-based, Sprague Dawley rats. The settings on record: Rattus norvegicus. Here is the method:
Explants from rat aortas were prepared by a modification of protocols previously described^42-54. In this model, the rat aortic endothelium exposed to a three dimensional matrix of ECM-derived proteins (Matrigel™), switches to a microvascular phenotype, generating branching networks of microvessels.
Briefly, thoracic aortas were excised from 2- to 4-month old Sprague Dawley rats and trimmed of remaining fat and connective tissue. Great care was taken at every stage to reduce physical damage of the aorta. Tissue was transferred to complete EBM-2 media (Cambrex) containing 2% FCS and all Singlequots™ (Cambrex) reagents except for heparin. Meanwhile, Matrigel™ (BD Biosciences) was allowed to cool on ice and once in a liquid form, 180 μL was pipetted into 48-well tissue culture plates (Nunc). The plates were incubated at 37° C. for 30 min to allow Matrigel™ to solidify.
Aortas were prepared by cutting 1 mm ring sections and then being bisected. Aortic segments were then carefully placed on top on the Matrigel™ in the centre of each well and once orientated as required, 60 μL of extra Matrigel™ was placed on top and the plate was returned to the incubator for a further 20 min. Each well was then supplemented with 1.0 mL media in the absence (control) or presence of test compounds usually at two concentrations within the range of 1-50 μM, depending on the particular compound/experiment. Cultures were replenished as appropriate every 48 h and scoring of microvessels was carried out at various timepoints up to 8-10 days. The extent of microvessel sprouting was determined by employing a scoring system from 0-5, where 0=no microvessels to 5=diffuse angiogenesis as previously described^45. Sprouting vessels were photographed using the 4× objective with an Olympus C-7070 camera and an adaptor for the eyepiece.
In some instances, to determine the potential toxicity of compounds in this assay, the viability of the tissue was assessed by withdrawing the compound/media from the culture on day 6 or 7 and adding complete media with VEGF (typically 10 ng/mL) for up to an additional 7 days. In the absence of toxicity, the viable tissue should sprout microvessels in response to the exogenous growth factor.
The inhibitory effect of compounds of the present invention on angiogenesis was assayed using the angiogenic sprout/microvessel formation (rat aortic) assay described above. Embedding of the rat aortic tissue in Matrigel™ in the absence of any inhibitor (control) yielded extensive angiogenic sprouting (as a score of 5 indicates diffuse angiogenesis) as illustrated by FIG. 1.

Data set [4] addresses T2, recombinant human heparanase (Homo sapiens, UniProt Q9Y251).
T2 sequence (Q9Y251 158-543 limits assumed): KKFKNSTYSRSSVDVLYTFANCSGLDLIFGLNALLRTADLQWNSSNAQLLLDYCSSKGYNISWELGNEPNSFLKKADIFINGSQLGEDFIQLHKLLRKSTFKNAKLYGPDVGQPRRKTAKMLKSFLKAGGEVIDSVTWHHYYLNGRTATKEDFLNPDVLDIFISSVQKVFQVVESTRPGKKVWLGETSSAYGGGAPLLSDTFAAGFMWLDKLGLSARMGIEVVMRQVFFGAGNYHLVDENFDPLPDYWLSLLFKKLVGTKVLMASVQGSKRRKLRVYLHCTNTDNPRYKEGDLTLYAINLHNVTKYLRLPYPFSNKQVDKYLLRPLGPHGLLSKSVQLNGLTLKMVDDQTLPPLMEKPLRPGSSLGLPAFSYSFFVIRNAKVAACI
T2 sequence (Q9Y251 36-109 limits assumed): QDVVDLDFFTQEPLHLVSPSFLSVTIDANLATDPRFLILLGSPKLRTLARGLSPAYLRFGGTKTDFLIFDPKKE
Description: Heparanase inhibition assay (fondaparinux cleavage, WST-1). The settings on record: read-out: Ki Heparanase; IC50 converted into Ki; fondaparinux 100 μM, pH 5.0.

The target in a further data set is FGF-1 (Homo sapiens, UniProt P05230). The experiment in a line: Growth factor binding assay (SPR solution affinity), FGF-1. To be noted: SPR, HBS-EP buffer, 25° C.; read-out: Kd FGF-1.

Read-outs that look alike come from different tables or passages of the source.

Chain of FGF-2 (P09038 143-288, species assumed): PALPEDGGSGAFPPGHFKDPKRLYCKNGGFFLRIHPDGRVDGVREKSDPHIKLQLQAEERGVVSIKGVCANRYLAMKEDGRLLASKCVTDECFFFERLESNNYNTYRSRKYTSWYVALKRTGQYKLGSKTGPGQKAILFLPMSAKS
Chain of FGF-1 (P05230 whole entry, species assumed): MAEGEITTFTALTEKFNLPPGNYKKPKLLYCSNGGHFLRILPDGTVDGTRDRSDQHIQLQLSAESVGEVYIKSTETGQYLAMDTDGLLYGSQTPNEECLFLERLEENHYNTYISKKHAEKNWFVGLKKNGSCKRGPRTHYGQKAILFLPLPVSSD

`CC(C)CCCC(C)C1CCC2C3CCC4CC(OC5OC(COS(=O)(=O)O)C(OC6OC(COS(=O)(=O)O)C(OC7OC(COS(=O)(=O)O)C(OC8OC(COS(=O)(=O)O)C(OS(=O)(=O)O)C(OS(=O)(=O)O)C8OS(=O)(=O)O)C(OS(=O)(=O)O)C7OS(=O)(=O)O)C(OS(=O)(=O)O)C6OS(=O)(=O)O)C(OS(=O)(=O)O)C5OS(=O)(=O)O)CCC4(C)C3CCC12C` [Compound 65, 3β-Cholestanyl 2,3,4,6-tetra-O-sodium sulfonato-α-D-glucopyranosyl-(1→4)-2,3,6-tri-O-sodium sulfonato-α-D-glucopyranosyl-(1→4)-2,3,6-tri-O-sodium sulfonato-α-D-glucopyranosyl-(1→4)-2,3,6-tri-O-sodium sulfonato-β-D-glucopyranoside]: the Kd was determined as 28.9 ± 2.3 nM at VEGF and 390 ± 80 nM at FGF-2. The APTT in data set [1] was 71.9 s. Also, in [2] (intra venous, Sprague-Dawley rats, radiolabelled compound in plasma), the “Half-life (iv)” value came to 17.3 h. Also, the “Half-life (sc)” value in [2] (subcutaneous, Sprague-Dawley rats, radiolabelled compound in plasma) came out at 21.3 h. In addition, in [3], the Heptest amounted to 28.6 s.

Consider `CCCCCCCCCCCCCCCCCC(=O)NCCCO[C@@H]1O[C@H](COS(=O)(=O)[O-])[C@@H](O[C@H]2O[C@H](COS(=O)(=O)[O-])[C@@H](O[C@H]3O[C@H](COS(=O)(=O)[O-])[C@@H](OS(=O)(=O)[O-])[C@H](OS(=O)(=O)[O-])[C@H]3OS(=O)(=O)[O-])[C@H](OS(=O)(=O)[O-])[C@H]2OS(=O)(=O)[O-])[C@H](OS(=O)(=O)[O-])[C@H]1OS(=O)(=O)[O-].[Na+].[Na+].[Na+].[Na+].[Na+].[Na+].[Na+].[Na+].[Na+].[Na+]` [Compound 123, 3-Stearamidopropyl 2,3,4,6-tetra-O-sulfo-α-D-glucopyranosyl-(1→4)-2,3,6-tri-O-sulfo-α-D-glucopyranosyl-(1→4)-2,3,6-tri-O-sulfo-β-D-glucopyranoside, decasodium salt], for which the dissociation constant (Kd) at VEGF worked out at 380 ± 110 nM; on FGF-2, 530 ± 50 nM; at FGF-1 it was 32.2 ± 2.3 nM. The inhibition at 10 µM in the data set on HUVECs came to 33%; in the data set on rat aortic tissue, 23%. In [1], this compound registered an APTT of 51.1 s. Besides, the Ki in [4] came out at 11.3 ± 0.4 nM. The Heptest in data set [3] came to 24.9 s.

Turning to PI-88 [reference compound], the “Half-life (iv)” value in [2] (rat, in vivo, iv) came to 1.1 h. In addition, the “Half-life (sc)” value in [2] (rat, in vivo, sc) came out at 1.2 h.
